According to US12421243B2, “Pharmaceutically effective compounds inhibiting selectively the myosin 2 isoforms” (PRINTNET KERESKEDELMI ÉS SZOLGÁLTATÓ KFT., priority 2018, dated 2025):

How the values were obtained:
[1] = molecular target: recombinant Dictyostelium miozin (Dictyostelium) (Dictyostelium discoideum, UniProt P08799); test: actomyosin steady state ATPase measurement, Dictyostelium myosin; type: biochemical; details: for IC50: concentration required for semi-maximal inhibition of ATPase, read-out: IC50 (μM) Dicty; for % inhibition. complete Dicty: maximum value of inhibition of ATPase activity; for inhibition at 5 µM: read-out: % inhibition at 5 μM (or 10 μM if racemate) Dicty; for inhibition at 50 µM: read-out: % inhibition at 50 μM (or 100 μM if racemate) Dicty; for Inhibition (%) Dicty: maximum inhibition, compounds in IC50 range 1-11 μM
From the text: (§1) […]; (ii) the concentration required for semi-maximal inhibition.

[2] = molecular target: recombinant human non-muscle myosin 2 NM2A (Homo sapiens, UniProt P35579); test: actomyosin steady state ATPase measurement, NM2A; type: biochemical; details: for IC50: concentration required for semi-maximal inhibition of ATPase; for % inhibition. complete NM2A: maximum value of inhibition of ATPase activity; for inhibition at 5 µM: read-out: % inhibition at 5 μM (or 10 μM if racemate) NM2A, 5 μM (10 μM if racemate); for inhibition at 5 µM / inhibition at 50 µM: ATPase activity; for inhibition at 50 µM: read-out: % inhibition at 50 μM (or 100 μM if racemate) NM2A, 50 μM (100 μM if racemate)
From the text: as §1

[3] = molecular target: recombinant human non-muscle myosin 2 NM2B (Homo sapiens, UniProt P35580); test: actomyosin steady state ATPase measurement, NM2B; type: biochemical
From the text: as §1

[4] = molecular target: recombinant human non-muscle myosin 2 NM2C (Homo sapiens, UniProt Q7Z406); test: actomyosin steady state ATPase measurement, NM2C; type: biochemical; details: for IC50: concentration required for semi-maximal inhibition of ATPase; for % inhibition. complete NM2C: maximum value of inhibition of ATPase activity; for inhibition at 5 µM: read-out: % inhibition at 5 μM (or 10 μM if racemate) NM2C, 5 μM (10 μM if racemate); for inhibition at 5 µM / inhibition at 50 µM: ATPase activity; for inhibition at 50 µM: read-out: % inhibition at 50 μM (or 100 μM if racemate) NM2C, 50 μM (100 μM if racemate)
From the text: as §1

[5] = molecular target: T1, isolated porcine cardiac ventricular myocardium (cardiac) (Sus scrofa, UniProt P79293); test: actomyosin steady state ATPase measurement, cardiac myosin; type: biochemical; details: for IC50: concentration required for semi-maximal inhibition of ATPase; for % inhibition. complete cardiac: maximum value of inhibition of ATPase activity; for inhibition at 5 µM: read-out: % inhibition at 5 μM (or 10 μM if racemate) cardiac, 5 μM (10 μM if racemate); for inhibition at 5 µM / inhibition at 50 µM: ATPase activity; for inhibition at 50 µM: read-out: % inhibition at 50 μM (or 100 μM if racemate) cardiac, 50 μM (100 μM if racemate)
T1 construct: isolated porcine cardiac ventricular myocardium (cardiac); from tissue; host or cells: porcine cardiac ventricle
From the text: as §1

[6] = tested on: isolated rabbit skeletal muscle myosin (skeletal); test: actomyosin steady state ATPase measurement, skeletal muscle myosin; type: biochemical; details: for % inhibition at 5 μM (or 10 μM if racemate) Skeletal: 5 μM (10 μM if racemate); for % inhibition at 5 μM (or 10 μM if racemate) Skeletal / % inhibition at 50 μM (or 100 μM if racemate) Skeletal: ATPase activity; for % inhibition at 50 μM (or 100 μM if racemate) Skeletal: 50 μM (100 μM if racemate); for IC50: concentration required for semi-maximal inhibition of ATPase; for % inhibition. complete Skeletal: maximum value of inhibition of ATPase activity
From the text: as §1

[7] = molecular target: isolated smooth muscle myosin (UniProt P10587); type: biochemical, chamois; details: concentration required for semi-maximal inhibition of ATPase
From the text: (ii) the concentration required for semi-maximal inhibition.

[8] = solubility in PBS in the presence of 1% DMSO; type: physicochemical; details: phosphate buffered saline with 1% DMSO, aqueous buffer, kinetic from dmso stock, PBS w/o Mg, Ca
[9] = molecular target: isolated smooth muscle myosin (UniProt P10587); type: biochemical, chamois; details: for % inhibition at 5 μM (or 10 μM if racemate) Smooth: 5 μM (10 μM if racemate); for % inhibition at 5 μM (or 10 μM if racemate) Smooth / % inhibition at 50 μM (or 100 μM if racemate) Smooth: ATPase activity; for % inhibition at 50 μM (or 100 μM if racemate) Smooth: 50 μM (100 μM if racemate); for % inhibition. complete Smooth: maximum value of inhibition of ATPase activity
[10] = tested on: M. quadriceps femoris; test: isometric force measurement of live, anesthetized rat M. quadriceps femoris due to electrical stimulation; type: in vivo; details: 6 mg i.p.
Protocol: (§2) The maximum isometric force induced by the stimulation was determined after intraperitoneal injection of some of the compounds of the invention. During the measurement, the following parameters of live anesthetized rats were continuously monitored: • a) heart rate • b) blood flow in the neck arteries • c) respiratory frequency • d) blood oxygen saturation ratio Results from live anesthetized rats are summarized in the table below.

[11] = vital parameters of live anesthetized rats monitored during isometric force measurement; type: in vivo; details: 6 mg i.p., anesthetized rat
Protocol: as §2, with “ratio” for “ratio Results from live anesthetized rats are summarized in the table below.”

T1 sequence (P79293 whole entry): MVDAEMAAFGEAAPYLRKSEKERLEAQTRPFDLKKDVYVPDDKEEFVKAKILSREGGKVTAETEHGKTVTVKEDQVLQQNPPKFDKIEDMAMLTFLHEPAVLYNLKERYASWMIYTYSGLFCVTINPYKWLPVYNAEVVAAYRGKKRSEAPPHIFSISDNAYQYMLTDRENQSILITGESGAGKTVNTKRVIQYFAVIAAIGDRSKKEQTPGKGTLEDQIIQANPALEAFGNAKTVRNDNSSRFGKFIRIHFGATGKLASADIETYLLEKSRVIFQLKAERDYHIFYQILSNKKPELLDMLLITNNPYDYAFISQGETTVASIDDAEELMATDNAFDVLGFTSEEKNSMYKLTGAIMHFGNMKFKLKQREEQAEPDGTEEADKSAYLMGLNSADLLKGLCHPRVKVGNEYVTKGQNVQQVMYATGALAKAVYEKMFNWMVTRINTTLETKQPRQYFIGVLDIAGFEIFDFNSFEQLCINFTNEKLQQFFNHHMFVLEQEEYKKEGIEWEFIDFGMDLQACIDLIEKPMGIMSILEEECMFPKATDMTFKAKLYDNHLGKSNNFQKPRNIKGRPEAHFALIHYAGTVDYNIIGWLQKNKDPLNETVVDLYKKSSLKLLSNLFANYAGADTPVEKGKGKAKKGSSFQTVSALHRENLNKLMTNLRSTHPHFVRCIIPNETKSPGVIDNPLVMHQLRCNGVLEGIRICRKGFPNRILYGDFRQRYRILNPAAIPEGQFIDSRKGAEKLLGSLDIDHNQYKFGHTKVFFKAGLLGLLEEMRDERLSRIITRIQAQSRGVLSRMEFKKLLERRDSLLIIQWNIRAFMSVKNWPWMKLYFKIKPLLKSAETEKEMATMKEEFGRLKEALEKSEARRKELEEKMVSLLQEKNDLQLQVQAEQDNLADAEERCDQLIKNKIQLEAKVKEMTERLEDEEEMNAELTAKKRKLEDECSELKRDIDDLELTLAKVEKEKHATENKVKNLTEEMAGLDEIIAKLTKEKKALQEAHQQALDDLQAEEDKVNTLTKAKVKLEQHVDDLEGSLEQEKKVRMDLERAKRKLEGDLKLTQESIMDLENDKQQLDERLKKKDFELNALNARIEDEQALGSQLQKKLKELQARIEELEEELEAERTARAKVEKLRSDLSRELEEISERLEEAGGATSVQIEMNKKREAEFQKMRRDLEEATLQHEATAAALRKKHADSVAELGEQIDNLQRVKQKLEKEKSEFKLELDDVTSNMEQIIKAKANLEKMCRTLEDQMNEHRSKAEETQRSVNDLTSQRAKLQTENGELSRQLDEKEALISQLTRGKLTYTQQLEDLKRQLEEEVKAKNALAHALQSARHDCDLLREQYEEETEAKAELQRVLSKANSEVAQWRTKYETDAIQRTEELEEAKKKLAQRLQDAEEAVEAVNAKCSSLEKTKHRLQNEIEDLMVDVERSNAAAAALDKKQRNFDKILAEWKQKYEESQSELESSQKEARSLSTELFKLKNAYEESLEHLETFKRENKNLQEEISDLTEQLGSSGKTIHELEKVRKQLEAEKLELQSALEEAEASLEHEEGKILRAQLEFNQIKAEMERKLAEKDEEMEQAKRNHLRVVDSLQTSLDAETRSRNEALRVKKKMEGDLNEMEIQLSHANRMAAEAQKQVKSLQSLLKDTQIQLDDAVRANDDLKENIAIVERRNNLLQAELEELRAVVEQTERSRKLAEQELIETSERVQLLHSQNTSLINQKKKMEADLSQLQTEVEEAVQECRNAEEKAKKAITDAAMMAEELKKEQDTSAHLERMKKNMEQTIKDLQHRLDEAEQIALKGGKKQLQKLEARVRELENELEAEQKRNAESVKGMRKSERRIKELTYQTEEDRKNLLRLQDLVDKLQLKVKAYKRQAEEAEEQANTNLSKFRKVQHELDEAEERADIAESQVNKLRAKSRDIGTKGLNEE
Sequence of recombinant human non-muscle myosin 2 NM2B (P35580 whole entry): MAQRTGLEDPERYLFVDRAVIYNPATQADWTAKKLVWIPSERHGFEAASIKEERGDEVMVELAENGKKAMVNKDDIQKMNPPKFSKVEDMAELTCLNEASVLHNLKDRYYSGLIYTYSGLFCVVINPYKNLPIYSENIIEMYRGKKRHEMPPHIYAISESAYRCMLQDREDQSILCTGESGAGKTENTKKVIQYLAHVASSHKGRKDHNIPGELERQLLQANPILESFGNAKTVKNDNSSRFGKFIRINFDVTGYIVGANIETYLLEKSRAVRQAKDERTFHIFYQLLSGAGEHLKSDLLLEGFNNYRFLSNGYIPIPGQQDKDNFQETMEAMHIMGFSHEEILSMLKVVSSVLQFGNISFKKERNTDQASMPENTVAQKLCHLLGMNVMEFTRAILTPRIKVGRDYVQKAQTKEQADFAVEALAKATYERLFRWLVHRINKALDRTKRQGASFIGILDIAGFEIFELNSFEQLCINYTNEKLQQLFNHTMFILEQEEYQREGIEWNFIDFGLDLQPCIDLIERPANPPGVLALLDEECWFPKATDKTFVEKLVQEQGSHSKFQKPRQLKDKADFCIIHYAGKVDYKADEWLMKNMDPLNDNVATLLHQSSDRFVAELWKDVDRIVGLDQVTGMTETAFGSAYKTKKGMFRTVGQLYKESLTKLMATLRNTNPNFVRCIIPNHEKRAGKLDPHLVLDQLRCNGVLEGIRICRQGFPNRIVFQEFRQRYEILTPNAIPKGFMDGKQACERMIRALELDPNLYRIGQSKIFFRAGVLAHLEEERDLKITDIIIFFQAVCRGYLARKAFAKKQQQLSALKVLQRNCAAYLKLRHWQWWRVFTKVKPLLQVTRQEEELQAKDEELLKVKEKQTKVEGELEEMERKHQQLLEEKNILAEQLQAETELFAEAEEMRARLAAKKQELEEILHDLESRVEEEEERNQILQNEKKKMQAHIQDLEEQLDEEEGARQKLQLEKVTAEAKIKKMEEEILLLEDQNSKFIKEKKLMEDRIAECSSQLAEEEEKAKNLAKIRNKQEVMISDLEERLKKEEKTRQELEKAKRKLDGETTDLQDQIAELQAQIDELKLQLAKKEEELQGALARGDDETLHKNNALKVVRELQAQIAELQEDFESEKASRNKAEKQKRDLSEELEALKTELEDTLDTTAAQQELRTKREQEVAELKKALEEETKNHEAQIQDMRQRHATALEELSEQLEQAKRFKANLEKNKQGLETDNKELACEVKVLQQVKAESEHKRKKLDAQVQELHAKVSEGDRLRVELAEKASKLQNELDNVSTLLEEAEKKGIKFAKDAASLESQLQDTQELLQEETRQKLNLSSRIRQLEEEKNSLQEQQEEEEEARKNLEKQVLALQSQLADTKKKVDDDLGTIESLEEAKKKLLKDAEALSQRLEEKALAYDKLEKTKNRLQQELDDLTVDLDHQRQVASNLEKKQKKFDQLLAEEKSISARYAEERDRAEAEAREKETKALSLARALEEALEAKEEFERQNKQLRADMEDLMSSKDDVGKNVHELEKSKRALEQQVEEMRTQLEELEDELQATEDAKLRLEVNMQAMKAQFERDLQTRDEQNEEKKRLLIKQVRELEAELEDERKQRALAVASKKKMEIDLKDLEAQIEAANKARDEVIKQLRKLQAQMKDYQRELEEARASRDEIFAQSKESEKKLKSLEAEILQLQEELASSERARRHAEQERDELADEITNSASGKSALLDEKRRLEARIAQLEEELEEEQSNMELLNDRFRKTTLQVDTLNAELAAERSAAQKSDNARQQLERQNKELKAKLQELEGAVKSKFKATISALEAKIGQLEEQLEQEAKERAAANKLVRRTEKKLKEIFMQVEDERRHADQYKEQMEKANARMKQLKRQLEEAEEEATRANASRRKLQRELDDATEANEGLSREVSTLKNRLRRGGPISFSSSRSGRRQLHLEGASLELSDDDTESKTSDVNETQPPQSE

| Compound | IC50 [1] [µM] | % inhibition. complete Dicty [1] [%] | inhibition at 5 µM [1] [%] | inhibition at 50 µM [1] [%] | IC50 [4] [µM] | % inhibition. complete NM2C [4] [%] | inhibition at 5 µM [4] [%] | inhibition at 50 µM [4] [%] | IC50 [5] [µM] | % inhibition. complete cardiac [5] [%] | inhibition at 5 µM [5] [%] | inhibition at 50 µM [5] [%] | % inhibition at 5 μM (or 10 μM if racemate) Skeletal [6] [%] | % inhibition at 50 μM (or 100 μM if racemate) Skeletal [6] [%] | IC50 [6] [µM] | % inhibition. complete Skeletal [6] [%] | IC50 [7] [µM] | % inhibition at 5 μM (or 10 μM if racemate) Smooth [9] [%] | % inhibition at 50 μM (or 100 μM if racemate) Smooth [9] [%] | % inhibition. complete Smooth [9] [%] | other results |
| --- | --- | --- | --- | --- | --- | --- | --- | --- | --- | --- | --- | --- | --- | --- | --- | --- | --- | --- | --- | --- | --- |
| O=C1c2ccsc2N=C2N(c3ccccc3)CCC12O (stereo not drawn) [Compound 180, 9-Hydroxy-12-phenyl-4-thia-2,12-diazatricyclo[7.3.0.0^3,7]dodeca-1,3(7),5-trien-8-one] | 13.1 | 85 | 22 | 67 | 9.3 | 60 | 20 | 55 | 5.1 | 89 | 42 | 81 | 87 | 96 | 0.81 | 99 | 14 | 16 | 38 | 58 | IC50 [2]: 9.8 µM; Inhibition (%) NM2A ([2]; maximum inhibition, compounds in IC50 range 5-10 μM): 48%; % inhibition. complete NM2A [2]: 48%; inhibition at 5 µM [2]: 15%; inhibition at 50 µM [2]: 44%; IC50 ([3]; concentration required for semi-maximal inhibition of ATPase): 18.7 µM; % inhibition. complete NM2B ([3]; maximum value of inhibition of ATPase activity): 60%; inhibition at 5 µM ([3]; read-out: % inhibition at 5 μM (or 10 μM if racemate) NM2B, 5 μM (10 μM if racemate), ATPase activity): 14%; inhibition at 50 µM ([3]; read-out: % inhibition at 50 μM (or 100 μM if racemate) NM2B, 50 μM (100 μM if racemate), ATPase activity): 44%; Inhibition (%) cardiac ([5]; maximum inhibition, compounds in IC50 range 3-6 μM): 89%; solubility [8]: 2400 µM |
| Nc1ccc(N2CC[C@@]3(O)C(=O)c4ccsc4N=C23)cc1 [Compound 210, (9S)-12-(4-aminophenyl)-9-hydroxy-4-thia-2,12-diazatricyclo[7.3.0.0^3,7]dodeca-1,3(7),5-trien-8-one] | > 100 | 100 | 3 | 34 | 5.2 | 41 | 18 | 38 | 6 | 82 | 36 | 73 | 44 | 84 | 5.6 | 94 | 12.5 | 9 | 28 | 37 | IC50 [2]: > 100 µM; % inhibition. complete NM2A [2]: 100%; inhibition at 5 µM [2]: 0%; inhibition at 50 µM [2]: 14%; solubility [8]: 1360 µM |
| COc1ccc(N2CC[C@@]3(O)C(=O)c4ccsc4N=C23)cc1 [Compound 211, (9S)-9-hydroxy-12-(4-methoxyphenyl)-4-thia-2,12-diazatricyclo[7.3.0.0^3,7]dodeca-1,3(7),5-trien-8-one] | 9.4 | 100 | 33 | 85 | 2 | 70 | 46 | 67 | 1.3 | 87 | 67 | 85 | 93 | 98 | 0.28 | 98 | 7 | 34 | 74 | 85 | IC50 [2]: 22 µM; % inhibition. complete NM2A [2]: 99%; inhibition at 5 µM [2]: 17%; inhibition at 50 µM [2]: 69%; solubility [8]: 510 µM |
| N#Cc1ccc(N2CC[C@@]3(O)C(=O)c4ccsc4N=C23)cc1 [Compound 213, (9S)-4-{9-Hydroxy-8-oxo-4-thia-2,12-diazatricyclo[7.3.0.0^3,7]dodeca-1,3(7),5-trien-12-yl}benzonitrile] | 3.5 | 87 | 50 | 81 | 8 | 63 | 22 | 54 | 1.8 | 87 | 61 | 84 | 89 | 98 | 0.58 | 99 | 18 | 16 | 57 | 78 | Inhibition (%) Dicty [1]: 87%; IC50 [2]: 23 µM; % inhibition. complete NM2A [2]: 74%; inhibition at 5 µM [2]: 13%; inhibition at 50 µM [2]: 51%; solubility [8]: 410 µM |
| CC(=O)c1ccc(N2CC[C@@]3(O)C(=O)c4ccsc4N=C23)cc1 [Compound 214, (9S)-12-(4-acetylphenyl)-9-hydroxy-4-thia-2,12-diazatricyclo[7.3.0.0^3,7]dodeca-1,3(7),5-trien-8-one] | 36 | 100 | 8 | 59 | 2.9 | 36 | 21 | 34 | 8.8 | 86 | 30 | 73 | 80 | 97 | 1.2 | 100 | 49 | 6 | 52 | 100 | IC50 [2]: 1 µM; % inhibition. complete NM2A [2]: 32%; inhibition at 5 µM [2]: 25%; inhibition at 50 µM [2]: 31%; Inhibition (%) NM2C ([4]; maximum inhibition, compounds in IC50 range 1-5 μM): 36%; solubility [8]: 820 µM |
| O=C1c2ccncc2N=C2N(c3ccc(OC(F)(F)F)cc3)CCC12O (stereo not drawn) [Compound 238, 3a-Hydroxy-1-[4-(trifluoromethoxy)phenyl]-1H,2H,3H,3aH,4H-pyrrolo[2,3-b]1,7-naphthyridin-4-one] | 3.5 | 41 | 24 | 38 | 2.1 | 40 | 27 | 38 | 59 | 100 | 2 | 47 | 80 | 93 | 0.95 | 96 | 6.3 | 13 | 28 | 31 | Inhibition (%) Dicty [1]: 41%; Maximum change in isometric force at rear leg (%) [10]: 40%; Maximum change of vital parameters (%) heart rate [11]: 3%; Maximum change of vital parameters (%) oxygen saturation [11]: −12%; Maximum change of vital parameters (%) respiratory frequency [11]: −18%; Maximum change of vital parameters (%) blood flow ([11]; neck arteries): −10% |
